# Test results reported in PMC12977469, “Ligand binding drives proteolysis of the SmcR master transcription factor and controls quorum sensing-state transitions in Vibrio species” (mBio, 2026).
# Biological target: T1, SmcR (Vibrio vulnificus, UniProt Q9L8G8)
# T1 construct: full-length, His-tagged SmcR (homodimer); residues 1–15 not modeled in the crystal structure
# Assay: X-ray crystal structure ([…] Å) and isothermal titration calorimetry with purified protein; SAXS
# Assay type: binding
# T1 sequence (Q9L8G8 entry or part of it): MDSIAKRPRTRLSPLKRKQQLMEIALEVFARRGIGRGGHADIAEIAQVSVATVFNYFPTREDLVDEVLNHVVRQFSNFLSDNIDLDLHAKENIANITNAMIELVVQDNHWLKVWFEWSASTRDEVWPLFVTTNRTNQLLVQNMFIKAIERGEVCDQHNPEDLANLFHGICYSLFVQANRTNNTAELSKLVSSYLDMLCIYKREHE
smiles,measurement,value
"O=S(=O)(c1cccs1)n1ccc(-c2ccccc2)n1 [PTSP, 3-phenyl-1-(thiophen-2-ylsulfonyl)-1H-pyrazole]",Kd,~1000 nM
